Tests used:
[1] = test system: TXA2; assay: Test (a) rabbit aortal strip model, U46619 as agonist; format: cell-based; conditions: ±0.05
Method: (§1) As stated earlier, the acids of formula I are antagonists of one or more of the actions of TXA2, for example certain of its actions on blood platelets, the vasculature and/or the lung.
(a) The rabbit aortal strip model devised by Piper and Vane (Nature, 1969, 223, 29-35) using as agonist a freshly prepared sample of TXA2, generated by addition of arachidonic acid (25 μg) to citrated, platelet rich rabbit plasma (250 μl) and allowing the mixture to aggregate fully over 90 seconds before use; alternatively the TXA2 mimetic agent known as U46619 (described by R L Jones et alia in "Chemistry, Biochemistry and Pharmacological Activity of Prostanoids" edited by S M Roberts and F Scheinmann, at page 211; Pergamon Press, 1979) may be used as the agonist;

[2] = biological target: T1, U46619 stimulated platelet aggregation (Homo sapiens, UniProt P21731); assay: Test (b) blood platelet aggregation test (human citrated platelet-rich plasma, U46619); format: cell-based; conditions: U46619 stimulated aggregation of human platelets; averaged over several concentrations
T1 construct: human, citrated, platelet-rich plasma; endogenous in cells; host or cells: human platelets in citrated platelet-rich plasma
T1 sequence (P21731 1-343): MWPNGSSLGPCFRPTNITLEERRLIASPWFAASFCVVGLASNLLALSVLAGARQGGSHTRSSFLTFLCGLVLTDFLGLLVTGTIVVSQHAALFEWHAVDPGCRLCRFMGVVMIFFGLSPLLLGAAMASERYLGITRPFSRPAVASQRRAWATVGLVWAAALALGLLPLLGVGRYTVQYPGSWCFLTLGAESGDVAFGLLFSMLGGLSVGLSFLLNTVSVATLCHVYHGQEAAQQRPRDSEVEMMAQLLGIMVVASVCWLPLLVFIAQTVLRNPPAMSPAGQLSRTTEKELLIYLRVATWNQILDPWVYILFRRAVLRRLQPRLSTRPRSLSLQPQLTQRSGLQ
Source text: (b) A blood platelet aggregation test based on that described by Born (Nature, 1962, 194, 927-929) and involving:
(i) aggregating human, citrated, platelet-rich plasma by addition of the TXA2 mimetic agent U46619 so that a dose-response curve is generated,
(ii) generating a dose-response curve for U46619 stimulated platelet aggregation in the presence of decreasing amounts of test compound (generally in the range 10^-5 M to 10^-10 M); and
(iii) calculating a KB value indicating potency of TXA2 antagonism for the test compound, averaged over several concentrations, from the calculated 50% response value for U46619 aggregation in the presence and absence of test compound; and […]

[3] = test system: U46619 induced bronchoconstriction; assay: Test (c) bronchoconstriction test, Konzett-Rossler anaesthetised guinea-pig model; format: in vivo; conditions: 2 hours after oral dosing at 0.05 mg/kg
Source text: (c) a bronchoconstriction test involving measuring the inhibition by a test compound of the broncho-constriction induced in the Konzett-Rossler, anaesthetised guinea-pig model (as modified by Collier and James, Brit.J.Pharmacol., 1967, 30, 283-307) by intravenous administration of the TXA2 mimetic agent, U46619 and involving:
(i) obtaining a cumulative dose-response curve to U46619 induced bronchoconstriction by intravenous administration of constant volumes of increasing concentrations of U46619 (0.2-4 μg/kg) in physiological saline solution and expressing bronchoconstriction as the maximum of that theoretically obtainable with no air flow to the test animal;
(ii) generating a cumulative dose-response curve to U46619 induced bronchoconstriction at 30 minute intervals for 3 hours after oral dosing of test compound; and
(iii) calculating a dose-ratio for the test compound (that is the ratio of concentration of U46619 required to cause 50% bronchoconstriction in the presence and absence of test compound) indicating the potency of TXA2 antagonism.

[4] = test system: hypertensive effect of U46619; assay: Test (d) hypertensive effect of U46619 in anaesthetised rats; format: in vivo, rat (Alderley Park strain)
Method: (d) Male rats (Alderley Park strain) are anaesthetised with sodium pentobarbital and blood pressure is monitored at the carotid artery. The TXA2 mimetic agent is administered intravenously via the jugular vein and an ED50 (dose necessary to produce 50% of the maximum hypertensive effect) is established (n=3). [The ED50 for U46619 is approximately 5 μg/kg.] A test compound is then administered either intravenously (via the jugular vein) or orally (via a cannula) directly into the stomach and the animal challenged with an ED50 dose of U46619, five minutes after dosing with test compound and then successively every ten minutes until the hypertensive effect of U46619 is no longer blocked.

[5] = test system: TXA2; assay: TXA2 antagonism in general (statement in words)
Source text: as §1

Kb [2] [nM] | SMILES | pA2 (U46619) [1] | dose ratio [3] | duration of inhibition of the hypertensive effect of U46619 ([4]; about 80% inhibition, oral dose of 0.05 mg/kg) | inhibition of the hypertensive effect of U46619 ([4]; oral dose of 0.05 mg/kg, for more than 1 hour) | antagonism of one or more of the actions of TXA2 (in words) [5] | ED50 ([4]; Rattus norvegicus, intravenous via the jugular vein, n=3, read-out: ED50 (dose necessary to produce 50% of the maximum hypertensive effect)) [µg/kg]
7.54 | O=C(O)CC/C=C\C[C@H]1CO[C@@H](c2ccc([N+](=O)[O-])s2)O[C@H]1c1ccccc1O (relative stereo) [Example 4] | 8.3 | > 100 | more than 1 hour | about 80% | especially potent antagonists | –
13.8 | O=C(O)CC/C=C\C[C@H]1CO[C@@H](c2ccsc2)O[C@H]1c1ccccc1O (relative stereo) [Example 8, 4(Z)-6-([2,4,5-cis-]-4-o-hydroxy-phenyl-2-[3-thienyl]-1,3-dioxan-5-yl)hexenoic acid] | 7.6 | 3 | – | – | especially potent antagonists | –
– | N#Cc1ccc([C@@H]2OC[C@H](C/C=C\CCC(=O)O)[C@H](c3ccccc3O)O2)s1 (relative stereo) [Example 9, 4(2)-6([2,4,5-cis]-2-[5-cyano-2-thienyl]-4-o-hydroxphenyl-1,2-dioxan-5-yl)hexenoic acid] | – | – | – | – | especially potent antagonists | –
– | CCCCC[C@H](O)/C=C/[C@@H]1[C@@H](C/C=C\CCCC(=O)O)[C@H]2CO[C@@H]1C2 [Example U46619, reference compound] | – | – | – | – | – | ~5

Reference: US4822815A, “Dioxane hexenoic acids” (Imperial Chemical Industries PLC, priority 1985, dated 1989)
